Results taken from US11136301B2, “Broad spectrum antiviral compounds and uses thereof” (The Regents Of The University Of California, priority 2015, dated 2021).
Like-named read-outs stand apart in the source and are kept apart here.

How the values were obtained:
[1] = system: wild-type HIV-1 (HIV-1LAI) in MT-4 cells (permissive); assay: Antiviral activity assay: wild-type HIV-1 in permissive MT4 cells, reverse transcriptase activity in culture supernatants; format: cell-based
[2] = system: wild-type HIV-1 (HIV-1LAI) in H9 cells (non-permissive); assay: microbe, parasite or virus in culture; format: cell-based
[3] = Human immunodeficiency virus 1, MT4, Table 2, wild-type HIV-1, permissive MT4 cells, read-out: Antiviral activity (IC50 μM) MT4
[4] = Human immunodeficiency virus 1, MT4, wild-type HIV-1 (HIV-1LAI), MT4 cells (permissive), RT activity in culture supernatants, compounds 1 to 50 μM, read-out: Antiviral activity (IC50 μM) MT4 cells
[5] = Human immunodeficiency virus 1, H9, read-out: Antiviral activity (IC50 μM) H9, Table 2, wild-type HIV-1, non-permissive H9 cells
[6] = Human immunodeficiency virus 1, H9, read-out: Antiviral activity (IC50 μM) H9 Cells, Table 4, wild-type HIV-1, non-permissive H9 cells
[7] = Human immunodeficiency virus 1, H9, read-out: Antiviral activity (IC50 μM) H9 Cells, Table 7, wild-type HIV-1, non-permissive H9 cells
[8] = Human immunodeficiency virus 1, H9, read-out: Antiviral activity (IC50 μM) H9 cells, Table 5, wild-type HIV-1, non-permissive H9 cells
[9] = Human immunodeficiency virus 1, H9, read-out: Antiviral activity (IC50 μM) H9 cells, Table 8, wild-type HIV-1, non-permissive H9 cells
[10] = Human immunodeficiency virus 1, H9, read-out: Antiviral activity (IC50 μM) H9 cells, wild-type HIV-1 (HIV-1LAI), H9 cells (non-permissive), RT activity in culture supernatants, compounds 1 to 50 μM
[11] = Human immunodeficiency virus 1, H9, read-out: IC50, anti-HIV-1 activity, non-permissive H9 cells

Compound COc1ccccc1-n1cc(-c2ccccc2S(=O)(=O)c2ccc([N+](=O)[O-])cc2)nn1 [Compound 2ay, 1-(2-Methoxyphenyl)-4-(2-((4-nitrophenyl)sulfonyl)phenyl)-1H-1,2,3-triazole] has an IC50 [1, 3] greater than 50 µM, an IC50 [1, 4] greater than 50 µM and an IC50 [2, 5] of 13.8 µM. The IC50 [2, 6] was 13.8 µM, the IC50 [2, 7] was 13.8 µM and the IC50 [2, 8] was 13.8 µM. For the same compound, the IC50 [2, 9] was 13.8 µM and the IC50 [2, 10] was 13.8 µM.
Work on COC(=O)c1ccc(S(=O)(=O)c2ccccc2-c2cn(-c3cccc(OC)c3OC)nn2)cc1 [Compound 3by, Methyl 4-((2-(1-(2,3-dimethoxyphenyl)-1H-1,2,3-triazol-4-yl)phenyl)sulfonyl)benzoate] yielded an IC50 [1, 3] greater than 50 µM, an IC50 [1, 4] greater than 50 µM and an IC50 [2, 5] of 4.7 µM. For the same compound, the IC50 [2, 6] was 4.7 µM, the IC50 [2, 7] was 4.7 µM and the IC50 [2, 8] was 4.7 µM. The IC50 [2, 9] was 4.7 µM and the IC50 [2, 10] was 4.7 µM.
For COc1ccccc1-n1cc(-c2ccccc2S(=O)(=O)c2ccc(C(F)(F)F)cc2)nn1 [Compound 2dy, 1-(2-Methoxyphenyl)-4-(2-((4-(trifluoromethyl)phenyl)sulfonyl)phenyl)-1H-1,2,3-triazole], the IC50 [1, 3] was greater than 50 µM, the IC50 [1, 4] was greater than 50 µM and the IC50 [2, 5] was 4.8 µM. For the same compound, the IC50 [2, 6] was 4.8 µM, the IC50 [2, 7] was 4.8 µM and the IC50 [2, 8] was 4.8 µM. For the same compound, the IC50 [2, 9] was 4.8 µM and the IC50 [2, 10] was 4.8 µM.
COC(=O)c1ccc(Sc2ccccc2-c2cn(-c3c(F)cccc3OC)nn2)cc1 [Compound 7bx, Methyl 4-((2-(1-(2-fluoro-6-methoxyphenyl)-1H-1,2,3-triazol-4-yl)phenyl)thio)benzoate] showed an IC50 [1, 3] greater than 50 µM, an IC50 [1, 4] greater than 50 µM and an IC50 [2, 5] of 7.8 µM. It also gave an IC50 [2, 6] of 7.8 µM, an IC50 [2, 7] of 7.8 µM and an IC50 [2, 8] of 7.8 µM. For the same compound, the IC50 [2, 9] was 7.8 µM and the IC50 [2, 10] was 7.8 µM.
COc1ccc(Sc2ccccc2-c2cn(-c3cc(OC)ccc3OC)nn2)cc1 [Compound 5cx, 1-(2,5-Dimethoxyphenyl)-4-(2-((4-methoxyphenyl)thio)phenyl)-1H-1,2,3-triazole] gave an IC50 [1, 3] greater than 50 µM, an IC50 [1, 4] greater than 50 µM and an IC50 [2, 5] of 15.7 µM. For the same compound, the IC50 [2, 6] was 15.7 µM, the IC50 [2, 7] was 15.7 µM and the IC50 [2, 8] was 15.7 µM. For the same compound, the IC50 [2, 9] was 15.7 µM and the IC50 [2, 10] was 15.7 µM.
Work on COc1cccc(F)c1-n1cc(-c2ccccc2Sc2ccc([N+](=O)[O-])cc2)nn1 [Compound 7ax, 1-(2-Fluoro-6-methoxyphenyl)-4-(2-((4-nitrophenyl)thio)phenyl)-1H-1,2,3-triazole] yielded an IC50 [1, 3] greater than 50 µM, an IC50 [1, 4] greater than 50 µM and an IC50 [2, 5] of 3.9 µM. For the same compound, the IC50 [2, 6] was 3.9 µM, the IC50 [2, 7] was 3.9 µM and the IC50 [2, 8] was 3.9 µM. For the same compound, the IC50 [2, 9] was 3.9 µM and the IC50 [2, 10] was 3.9 µM.
COc1cccc(-n2cc(-c3ccccc3Sc3ccc([N+](=O)[O-])cc3)nn2)c1OC [Compound 3ax, 1-(2,3-Dimethoxyphenyl)-4-(2-((4-nitrophenyl)thio)phenyl)-1H-1,2,3-triazole] was tested, and the IC50 [1, 3] was greater than 50 µM, the IC50 [1, 4] was greater than 50 µM and the IC50 [2, 5] was 1.1 µM. For the same compound, the IC50 [2, 6] was 1.1 µM, the IC50 [2, 7] was 1.1 µM and the IC50 [2, 8] was 1.1 µM. The IC50 [2, 9] was 1.1 µM, the IC50 [2, 10] was 1.1 µM and the IC50 [2, 11] was 1 to 3 µM.
Work on COc1ccc(S(=O)(=O)c2ccccc2-c2cn(-c3c(OC)cccc3OC)nn2)cc1 [Compound 6cy, 1-(2,6-Dimethoxyphenyl)-4-(2-((4-methoxyphenyl)sulfonyl)phenyl)-1H-1,2,3-triazole] yielded an IC50 [1, 3] greater than 50 µM, an IC50 [1, 4] greater than 50 µM and an IC50 [2, 5] greater than 50 µM. The IC50 [2, 8] was greater than 50 µM, the IC50 [2, 9] was greater than 50 µM and the IC50 [2, 10] was greater than 50 µM.
With COc1cccc(OC)c1-n1cc(-c2ccccc2S(=O)(=O)c2ccc(C(=O)O)cc2)nn1 [Compound 6fy, 4-((2-(1-(2,6-Dimethoxyphenyl)-1H-1,2,3-triazol-4-yl)phenyl)sulfonyl)benzoic Acid] the IC50 [1, 3] was greater than 50 µM, the IC50 [1, 4] was greater than 50 µM and the IC50 [2, 5] was 1.2 µM. The IC50 [2, 6] was 1.2 µM, the IC50 [2, 7] was 1.2 µM and the IC50 [2, 8] was 1.2 µM. It also gave an IC50 [2, 9] of 1.2 µM, an IC50 [2, 10] of 1.2 µM and an IC50 [2, 11] of 1 to 3 µM.
Work on COc1cccc(-n2cc(-c3ccccc3Sc3ccc(C(=O)O)cc3)nn2)c1OC [Compound 3fx, 4-((2-(1-(2,3-Dimethoxyphenyl)-1H-1,2,3-triazol-4-yl)phenyl)thio)benzoic Acid] yielded an IC50 [1, 3] greater than 50 µM, an IC50 [1, 4] greater than 50 µM and an IC50 [2, 5] of 2.8 µM. The IC50 [2, 6] was 2.8 µM, the IC50 [2, 7] was 2.8 µM and the IC50 [2, 8] was 2.8 µM. The IC50 [2, 9] was 2.8 µM, the IC50 [2, 10] was 2.8 µM and the IC50 [2, 11] was 1 to 3 µM.
In the case of COc1ccc(S(=O)(=O)c2ccccc2-c2cn(-c3ccc(OC)cc3OC)nn2)cc1 [Compound 4cy, 1-(2,4-Dimethoxyphenyl)-4-(2-((4-methoxyphenyl)sulfonyl)phenyl)-1H-1,2,3-triazole], the IC50 [1, 3] is reported as greater than 50 µM, the IC50 [1, 4] is reported as greater than 50 µM and the IC50 [2, 5] is reported as greater than 50 µM. It also gave an IC50 [2, 8] greater than 50 µM, an IC50 [2, 9] greater than 50 µM and an IC50 [2, 10] greater than 50 µM.
With COc1cccc(F)c1-n1cc(-c2ccccc2S(=O)(=O)c2ccc(C(F)(F)F)cc2)nn1 [Compound 7dy, 1-(2-Fluoro-6-methoxyphenyl)-4-(2-((4-(trifluoromethyl)phenyl)sulfonyl)phenyl)-1H-1,2,3-triazole] the IC50 [1, 3] was greater than 50 µM, the IC50 [1, 4] was greater than 50 µM and the IC50 [2, 5] was greater than 50 µM. For the same compound, the IC50 [2, 8] was greater than 50 µM, the IC50 [2, 9] was greater than 50 µM and the IC50 [2, 10] was greater than 50 µM.
COc1cccc(-n2cc(-c3ccccc3S(=O)(=O)c3ccc([N+](=O)[O-])cc3)nn2)c1OC [Compound 3ay, 1-(2,3-Dimethoxyphenyl)-4-(2-((4-nitrophenyl)sulfonyl)phenyl)-1H-1,2,3-triazole] showed an IC50 [1, 3] greater than 50 µM, an IC50 [1, 4] greater than 50 µM and an IC50 [2, 5] greater than 50 µM. It also gave an IC50 [2, 8] greater than 50 µM, an IC50 [2, 9] greater than 50 µM and an IC50 [2, 10] greater than 50 µM.
Work on COc1ccccc1-n1cc(-c2ccccc2S(=O)(=O)c2ccc(C(=O)O)cc2)nn1 [Compound 2fy, 4-((2-(1-(2-Methoxyphenyl)-1H-1,2,3-triazol-4-yl)phenyl)sulfonyl)benzoic acid] yielded an IC50 [1, 3] greater than 50 µM, an IC50 [1, 4] greater than 50 µM and an IC50 [2, 5] of 8.2 µM. The IC50 [2, 6] was 8.2 µM, the IC50 [2, 7] was 8.2 µM and the IC50 [2, 8] was 8.2 µM. It also gave an IC50 [2, 9] of 8.2 µM and an IC50 [2, 10] of 8.2 µM.
Compound COC(=O)c1ccc(S(=O)(=O)c2ccccc2-c2cn(-c3cc(OC)ccc3OC)nn2)cc1 [Compound 5by, Methyl 4-((2-(1-(2,5-dimethoxyphenyl)-1H-1,2,3-triazol-4-yl)phenyl)sulfonyl)benzoate] has an IC50 [1, 3] greater than 50 µM, an IC50 [1, 4] greater than 50 µM and an IC50 [2, 5] of 4.6 µM. For the same compound, the IC50 [2, 6] was 4.6 µM, the IC50 [2, 7] was 4.6 µM and the IC50 [2, 8] was 4.6 µM. For the same compound, the IC50 [2, 9] was 4.6 µM and the IC50 [2, 10] was 4.6 µM.
For COc1ccc(-n2cc(-c3ccccc3S(=O)(=O)c3ccc(C(F)(F)F)cc3)nn2)c(OC)c1 [Compound 4dy, 1-(2,4-Dimethoxyphenyl)-4-(2-((4-(trifluoromethyl)phenyl)sulfonyl)phenyl)-1H-1,2,3-triazole], the IC50 [1, 3] was greater than 50 µM, the IC50 [1, 4] was greater than 50 µM and the IC50 [2, 5] was 12 µM. The IC50 [2, 6] was 12 µM, the IC50 [2, 7] was 12 µM and the IC50 [2, 8] was 12 µM. For the same compound, the IC50 [2, 9] was 12 µM and the IC50 [2, 10] was 12 µM.
COc1ccc(S(=O)(=O)c2ccccc2-c2cn(-c3ccccc3OC)nn2)cc1 [Compound 2cy, 1-(2-Methoxyphenyl)-4-(2-((4-methoxyphenyl)sulfonyl)phenyl)-1H-1,2,3-triazole] gave an IC50 [1, 3] greater than 50 µM, an IC50 [1, 4] greater than 50 µM and an IC50 [2, 5] of 4.3 µM. It also gave an IC50 [2, 6] of 4.3 µM, an IC50 [2, 7] of 4.3 µM and an IC50 [2, 8] of 4.3 µM. The IC50 [2, 9] was 4.3 µM and the IC50 [2, 10] was 4.3 µM.
For COc1cccc(OC)c1-n1cc(-c2ccccc2Sc2ccc(C(=O)O)cc2)nn1 [Compound 6gx, 2-Hydroxy-N,N,N-trimethylethanaminium 4-((2-(1-(2,6-dimethoxyphenyl)-1H-1,2,3-triazol-4-yl)phenyl)thio)benzoate], the IC50 ([2]; read-out: Antiviral activity (IC50 μM) H9, Table 2, wild-type HIV-1, non-permissive H9 cells) was 52 µM, the IC50 ([2]; read-out: Antiviral activity (IC50 μM) H9 cells, Table 5, wild-type HIV-1, non-permissive H9 cells) was 52 µM and the IC50 ([2]; read-out: Antiviral activity (IC50 μM) H9 cells, Table 8, wild-type HIV-1, non-permissive H9 cells) was 52 µM. It also gave an IC50 ([2]; read-out: Antiviral activity (IC50 μM) H9 cells, wild-type HIV-1 (HIV-1LAI), H9 cells (non-permissive), RT activity in culture supernatants, compounds 1 to 50 μM) of 52 µM.
With COc1cccc(OC)c1-n1cc(-c2ccccc2Sc2ccc(C(F)(F)F)cc2)nn1 [Compound 6dx, 1-(2,6-Dimethoxyphenyl)-4-(2-((4-(trifluoromethyl)phenyl)thio)phenyl)-1H-1,2,3-triazole] the IC50 [2, 8] was 5.3 µM, the IC50 [2, 9] was 5.3 µM and the IC50 [2, 10] was 5.3 µM.
COC(=O)c1ccc(S(=O)(=O)c2ccccc2-c2cn(-c3ccc(OC)cc3OC)nn2)cc1 [Compound 4by, Methyl 4-((2-(1-(2,4-dimethoxyphenyl)-1H-1,2,3-triazol-4-yl)phenyl)sulfonyl)benzoate] showed an IC50 [2, 8] of 7.6 µM, an IC50 [2, 9] of 7.6 µM and an IC50 [2, 10] of 7.6 µM.
COc1ccc(Sc2ccccc2-c2cn(-c3cccc(OC)c3OC)nn2)cc1 [Compound 3cx, 1-(2,3-Dimethoxyphenyl)-4-(2-((4-methoxyphenyl)thio)phenyl)-1H-1,2,3-triazole] showed an IC50 [2, 6] of 4.7 µM, an IC50 [2, 7] of 4.7 µM and an IC50 [2, 8] of 4.7 µM. It also gave an IC50 [2, 9] of 4.7 µM and an IC50 [2, 10] of 4.7 µM.
